In patent US5814627A, “3, 5-disubstituted and 3, 4, 5-trisubstituted 2-isoxazolines and isoxazoles, process for their preparation and their use as pharmaceuticals” (Hoechst Aktienegesellschaft, priority 1994, dated 1998):
Structures can show the parent of a compound that is named as a salt.

How the values were obtained:
[1] = system: tumor cell line 20-10-5S (hybridoma cell line); assay: Test 8: Inhibition of tumor cell proliferation; format: cell-based; settings: 48 h + 16 h tritiated thymidine incorporation; 20-10-5S cells
Method: The tumor cell line 20-10-5S (hybridoma cell line, supplied by ATCC (American Type Culture Collection)), which produces an antibody against mouse T cells) was used for determining the antiproliferative property of test substances. The cells were cultured, at 37° C. and 5% C2, under serum-free conditions in CG medium (cell-growth medium=Iscove-ATL (+albumin+transferrin+lipids); from Vitromex, Vilshofen). Only cells which were in the logarithmic phase of growth were used for the test mixture. The test substances were pipetted in various concentrations (from 1 to 50 μM), together with 4×10^3 20-10-5S cells, into round-bottomedmicrotiter plates (total volume with medium, 200 μl). After an incubation time of 48 h (37° C. and 5% CO2), 25 μl of tritiated thymidine (=0.25 μCi/test mixture, specific activity, 23 Ci/mM) were added to the plates. During the subsequent 16 h, the radioactively labeled thymidine was incorporated into the DNA of the growing cells. The samples were filtered off with suction on glass fiber filters and the incorporated radioactivity was measured using a β counter (Beta Plate System 1205 from Wallac).

[2] = system: adjuvant/arthritis model; assay: Test 6: antiarthritic effect in the adjuvant/arthritis model; format: in vivo, rat (Wistar-Lewis); settings: Rattus norvegicus, po, 408 h, daily for 17 days, rat, read-out: Test 6 Paw volume (% inhibition); for inhibition in vivo at 50 mg/kg: 50 mg/kg orally; for inhibition in vivo at 20 mg/kg: 20 mg/kg orally
[3] = system: cyclooxygenase-dependent thrombocyte aggregation; assay: Test 5: Cyclooxygenase-dependent thrombocyte aggregation; format: cell-based, human; settings: arachidonic acid as inducer
Method: TEST 5. Cyclooxygenase-dependent thrombocyte aggregation
Platelet-rich plasma (PRP): to inhibit coagulation, human blood was treated with 1/10 of its volume of 3.8% sodium citrate solution. Centrifugation then takes place at 105×g for 20 minutes and the supernatant (PRP) is removed. 200 μl of PRP were preincubated, at 37° C. for 10 minutes, together with 30 μl of test substance in a PAP4 aggregometer (BioData). The test substance was dissolved in organic solvent and diluted 1:30 with buffer (50 mM TisHCl, pH 8.0; 90 mM NaCl). Aggregation is triggered with 20 μl of inducer. During the aggregation, stirring takes place at 800 rpm. Arachidonic acid, 5 mg/ml, was used as the inducer.
The values in the table show the concentration of the test substance which was employed in μM and, besides this, the residual activity measured in percent based on the control, which was set to be 100%. The interleukin is additionally indicated in test 4.

[4] = system: polymorphonuclear leucocytes (PMNL); assay: Test 1: Release of proteolytic activity from human PMNL; format: cell-based; settings: Homo sapiens, PMNL, read-out: Test 1 residual activity (release of proteolytic activity), percent of control
Method: Isolation of polymorphonuclear leucocytes (PMNL) from human peripheral blood for carrying out tests 1 and 2 10 ml of human blood were diluted with 10 ml of HBSS (Serva) and underlaid with 15 ml of Lymphoprep (Dr. Molter GmbH, Heidelberg). […] A white ring, composed of mononuclear cells, is located between these two phases. The lowermost phase is composed of erythrocytes which are covered with a white layer of PMNL. The uppermost phase, and also the Lymphoprep and the white ring, were carefully removed using a syringe. The remaining sediment was carefully resuspended in 15 ml of 3% dextran in PM16 (mw: 485,000, Sigma, Deisenhofen). The suspension was then left to stand at room temperature for one hour. During this time, the erythrocytes sedimented while the PMNL remained in the supernatant. The supernatant was removed, diluted with an approximately equal volume of PM16, and centrifuged for 15 minutes at 400×g. Should the PMNL sediment be heavily contaminated with erythrocytes, it is necessary to carry out a hypotonic lysis. To do this, the sediment was resuspended in 750 μl of water. After exactly 15 seconds, the suspension was diluted with approximately 7 ml of PM16 and centrifuged for 10 minutes at 400×g. If necessary, this lysis was repeated once more. Otherwise, the PMNL sediment was resuspended in a suitable medium. 250 μl of PMNL (5·10^6 cells/ml of PBS containing 7.5 mM glucose) were incubated at 37° C. for 20 minutes with 1 μl of test substance. 1 μl of cytochalasin B (5 μg/ml of test mixture) was then added and the mixture was incubated at 37° C. for a further 5 minutes. Following the addition of 1 μl of […] necrosis factor alpha (TNF; 30 ng/ml of test mixture), the incubation was continued for 5 minutes. The release was started using 1 μl of fMLP (10 nmol/l of test mixture). After 60 minutes at 37° C., the reaction was terminated by cooling the samples down to 0° C. The samples were then centrifuged, and the supernatant was removed and frozen down. Cytochalasin B and fMLP were dissolved in DMSO and TNF was diluted with buffer. 50 μl of the supernatant were mixed with 175 μl of buffer (100 mM HEPES, pH 7.5; 500 mM NaCl) in a 96-well microtiter plate. Following the addition of 25 μl of substrate (methoxysuccinyl-[…]-nitroanilide), the extinction of each well was measured at 405 nm after 0, 5, 10, 15, 30 and 60 minutes. […] The interleukin is additionally indicated in test 4.

[5] = Homo sapiens, 100 μM, read-out: Test 5 residual activity (cyclooxygenase-dependent thrombocyte aggregation), percent of control
[6] = Homo sapiens, read-out: Test 5 residual activity (cyclooxygenase-dependent thrombocyte aggregation), percent of control

| Compound | IC50 [1] [µM] | activity at 100 µM [3, 5] [%] | also measured |
| --- | --- | --- | --- |
| CC(=O)O[C@@H](C)[C@@H]1CC(c2cc(C(C)(C)C)c(O)c(C(C)(C)C)c2)=NO1 (relative stereo) [Example 22, 1-(3-(4-Hydroxy-3,5-di-tert-butylphenyl)-2-isoxazolin-5-yl)ethyl acetate] |  |  | inhibition in vivo at 50 mg/kg [2]: 74% |
| CC(=O)CC(=O)O[C@H](C)[C@@H]1CC(c2cc(C(C)(C)C)c(O)c(C(C)(C)C)c2)=NO1 (relative stereo) [Example 84, 1-(3-(4-Hydroxy-3,5-di-tert-butylphenyl)-2-isoxazolin-5-yl)ethyl 3-oxobutyrate] |  |  | inhibition in vivo at 25 mg/kg ([2]; 25 mg/kg orally): 49% |
| C[C@@H](OP(=O)(Oc1ccccc1)Oc1ccccc1)[C@@H]1CC(c2cc(C(C)(C)C)c(O)c(C(C)(C)C)c2)=NO1 (relative stereo) [Example 85, Diphenyl 1-(3-(4-hydroxy-3,5-di-tert-butylphenyl)-2-isoxazolin-5-yl)ethyl phosphate] | < 5 |  | Test 5 residual activity (cyclooxygenase-dependent thrombocyte aggregation), percent of control ([3]; 100 μM): 94% |
| CC(C)(OCC1CC(c2cc(C(C)(C)C)c(O)c(C(C)(C)C)c2)=NO1)C(=O)O (centres unmarked) [Example 3, 2-(3-(4-Hydroxy-3,5-di-tert-butylphenyl)-2-isoxazolin-5-ylmethoxy)methylpropionic acid] | 10 | 98 |  |
| CC(C)(C)c1cc(C2=NOC(COC(=O)NCC(=O)O)C2)cc(C(C)(C)C)c1O (centres unmarked) [Example 4, N-(3-(4-Hydroxy-3,5-di-tert-butylphenyl)-2-isoxazolin-5-ylmethoxycarbonyl)glycine] | 30 |  |  |
| CC(C)(C)c1cc(C2=NOC(C(N)=O)C2)cc(C(C)(C)C)c1O (centres unmarked) [Example 11] | < 5 |  |  |
| CCC(C)(O)c1cc(-c2cc(C(C)(C)C)c(O)c(C(C)(C)C)c2)no1 (centres unmarked) [Example 31] |  | 100 |  |
| CC(C)(C)c1cc(-c2noc(CO)c2CO)cc(C(C)(C)C)c1O [Example 32] |  |  | activity at 1 µM ([4]; 1 μM): 84%; activity at 10 µM ([4]; 10 μM): 72%; activity at 100 µM ([4]; 100 μM): 34% |
| CC(C)(C)c1cc(-c2cc(C(C)(C)OCC(=O)O)on2)cc(C(C)(C)C)c1O [Example 34, (1-(3-(4-Hydroxy-3,5-di-tert-butylphenyl)isoxazol-5-yl)-1-methylethoxy)acetic acid] |  | 98 |  |
| CCOP(=O)(/C=C/c1cc(-c2cc(C(C)(C)C)c(O)c(C(C)(C)C)c2)no1)OCC [Example 57, Diethyl 2-(3-(4-hydroxy-3,5-di-tert-butylphenyl)isoxazol-5-yl)vinylphosphonate] | < 5 | 99 |  |
| CC(C)(C)c1cc(-c2cc(/C=C/P(=O)(O)O)on2)cc(C(C)(C)C)c1O [Example 58, 2-(3-(4-Hydroxy-3,5-di-tert-butylphenyl)isoxazol-5-yl)vinylphosphonic acid] |  | 99 |  |
| CC(=O)O[C@@H](C(=O)O)[C@@H](OC(C)=O)C(=O)NCc1cc(-c2cc(C(C)(C)C)c(O)c(C(C)(C)C)c2)no1 [Example 82, Di-O-acetyl-L-tartaric acid-N-(3-(4-hydroxy-3,5-di-tert-butylphenyl)isoxazol-5-yl)methylamide] |  | 93 |  |
| CC(C)(C)c1cc(-c2cc(CNC(=O)[C@H](O)[C@@H](O)C(=O)O)on2)cc(C(C)(C)C)c1O [Example 83] |  |  | inhibition in vivo at 50 mg/kg [2]: 39% |

Now from value to compound, other results behind:

| IC50 [1] [µM] | Compound | activity at 100 µM [3, 5] [%] | also measured |
| --- | --- | --- | --- |
| 10 | CC(OC(=O)[C@@H](N)Cc1ccc(O)cc1)C1CC(c2cc(C(C)(C)C)c(O)c(C(C)(C)C)c2)=NO1 (mixture of isomers) [Example 88, L-Tyrosyl 1-(3-(3,5-di-tert-butyl-4-hydroxyphenyl)-2-isoxazolin-5-yl)ethyl ester, rac. 5,5'-erythro isomer mixture] |  |  |
| 30 | CC(C)(C)c1cc(C2=NO[C@H]([C@H]3CO3)C2)cc(C(C)(C)C)c1O (relative stereo) [Example 16] |  |  |
| 8 to 15 | CC(C)(C)c1cc(C2=NO[C@H]([C@@H]3CO3)C2)cc(C(C)(C)C)c1O (relative stereo) [Example 17] |  |  |
| < 5 | C[C@@H](OC(=O)c1ccc(CN2CCOCC2)cc1)[C@@H]1CC(c2cc(C(C)(C)C)c(O)c(C(C)(C)C)c2)=NO1 (relative stereo) [Example 86, 1-(3-(4-Hydroxy-3,5-di-tert-butylphenyl)-2-isoxazolin-5-yl)ethyl 4-(4-morpholino)methylbenzoate hydrochloride] |  | inhibition in vivo at 20 mg/kg [2]: 70% |
| < 5 | C[C@H](OC(=O)c1ccc(CN2CCOCC2)cc1)[C@@H]1CC(c2cc(C(C)(C)C)c(O)c(C(C)(C)C)c2)=NO1 (relative stereo) [Example 87, 1-(3-(4-Hydroxy-3,5-di-tert-butylphenyl)-2-isoxazolin-5-yl)ethyl 4-(4-morpholino)methylbenzoate hydrochloride] |  | inhibition in vivo at 20 mg/kg [2]: 50% |
| < 5 | CC(C)(C)c1cc(-c2cc(C(C)(C)O)on2)cc(C(C)(C)C)c1O [Example 29] |  |  |
| < 5 | CCOC(=O)COC(C)(C)c1cc(-c2cc(C(C)(C)C)c(O)c(C(C)(C)C)c2)no1 [Example 33, Ethyl (1-(3-(4-hydroxy-3,5-di-tert-butylphenyl)isoxazol-5-yl)-1-methylethoxy)acetate] |  |  |
| < 5 | CN(O)C(=O)C(C)(C)OCc1cc(-c2cc(C(C)(C)C)c(O)c(C(C)(C)C)c2)no1 [Example 37, N-Methylhydroxamoyl-2-((3-(4-hydroxy-3,5-di-tert-butylphenyl)isoxazol-5-ylmethoxy)-2-methyl propionate] |  |  |
| 30 | CCOC(=O)CNC(=O)OCc1cc(-c2cc(C(C)(C)C)c(O)c(C(C)(C)C)c2)no1 [Example 39, N-(3-(4-Hydroxy-3,5-di-tert-butylphenyl)isoxazol-5-ylmethoxycarbonyl)glycine ethyl ester] | 98 |  |
| 5 to 10 | CC(C)(C)c1cc(-c2cc(CCCOC(=O)NCC(=O)O)on2)cc(C(C)(C)C)c1O [Example 42, N-(3-(4-Hydroxy-3,5-di-tert-butylphenyl)isoxazol-5-ylpropoxycarbonyl)glycine] |  |  |
| 5 to 10 | COC(=O)CCc1cc(-c2cc(C(C)(C)C)c(O)c(C(C)(C)C)c2)no1 [Example 44] |  | activity at 10 µM ([3]; Homo sapiens, 10 μM, read-out: Test 5 residual activity (cyclooxygenase-dependent thrombocyte aggregation), percent of control): 99% |
| 5 to 10 | CC(C)(C)c1cc(-c2cc(CCC(=O)O)on2)cc(C(C)(C)C)c1O [Example 45, 3-(4-Hydroxy-3,5-di-tert-butylphenyl)isoxazol-5-ylpropionic acid] | 98 |  |
| 5 to 10 | CC(O)CC(O)CC1CC(c2cc(C(C)(C)C)c(O)c(C(C)(C)C)c2)=NO1 (centres unmarked) [Example 78] |  | activity at 50 µM [3, 6]: 94% |
| 5 to 10 | C=CCC(O)CC1CC(c2cc(C(C)(C)C)c(O)c(C(C)(C)C)c2)=NO1 (centres unmarked) [Example 79] | 96 |  |
| 5 to 10 | C=CCC(O)CC1CC(c2cc(C(C)(C)C)c(O)c(C(C)(C)C)c2)=NO1 (centres unmarked) [Example 80] |  | activity at 50 µM [3, 6]: 97% |
